Data reported in patent publication EP0973746B1, “SUBSTITUTED 3-CYANO QUINOLINES” (Wyeth Holdings Corporation, priority 1997, dated 1998).
In brackets after ≈: the same amount, converted by molar mass. Several values for one entry are separate records, joined by “and”; a condition that tells them apart may be missing. Equal values may be shown once. Read-outs that look alike come from different tables or passages of the source.

What was measured:
[1] = target: T1, His-tagged cytoplasmic domain of EGFR (Homo sapiens, UniProt P00533); test: Inhibition of Epidermal Growth Factor Receptor Kinase (EGF-R) using recombinant enzyme; assay type: biochemical; conditions: recombinant enzyme; RR-SRC peptide; average of the number of tests; read-out: IC50;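 further: radiometric kinase assay measuring radiolabeled phosphate transfer from ATP onto the peptide tyrosine by scintillation counting, control is reaction without compound, background subtracted, IC50 from dose-response curve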
T1 construct: containing the EGFR cDNA encoding amino acids 645 - 1186 preceded by Met-Ala-(His)6; made in house; host or cells: Sf9 cells, recombinant baculovirus vHcEGFR52

SW620 = test: Inhibition of cancer cell growth as measured by cell number, SW620; assay type: cell-based, human; conditions: Homo sapiens, SW-620, 48 h, Table 8;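 further: SW620 was included as a cell line with little or no EGFR or HER2/neu expression, in contrast to receptor-overexpressing lines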
Text: (§1) The cell lines were chosen since they overexpressed epidermal growth factor receptor (EGFR) (i.e. A431) or HER2/neu (SKBR3), or had little to no expression of the these receptors (SW620, LOX, MCF7).

MCF7 = test: Inhibition of cancer cell growth as measured by cell number, MCF7; assay type: cell-based, human; conditions: Homo sapiens, MCF7, 48 h, Table 8;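 further: MCF7 was included as a line with little or no EGFR or HER2/neu expression, in contrast to the receptor-overexpressing lines of the panel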
Text: as §1

LOX = test: Inhibition of cancer cell growth as measured by cell number, LOX; assay type: cell-based, human; conditions: Homo sapiens, LOX, 48 h, Table 8;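 further: LOX cells served as a line with low or absent EGFR and HER2/neu expression, in contrast to receptor-overexpressing lines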
Text: as §1

A431 = test: Inhibition of cancer cell growth as measured by cell number, A431; assay type: cell-based, human; conditions: Table 8; for IC50: Homo sapiens, A-431, 48 h;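 on all read-outs here: human A431 line, picked because it overexpresses epidermal growth factor receptor (EGFR)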
Text: as §1

SKBR3 = test: Inhibition of cancer cell growth as measured by cell number, SKBR3; assay type: cell-based, human; conditions: Table 8; for IC50: Homo sapiens;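 on all read-outs here: SK-BR-3 cells were selected as a line overexpressing HER2/neu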
Text: as §1

[2] = target: recombinant human MEK 1 (MAPKK) and recombinant human ERK2 (MAPK); test: Mitogen Activated Protein Kinase (MAPK) assay, two component coupled MEK 1 / ERK2; assay type: biochemical; conditions: separate entries for the same compound = evaluated more than one time;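 further: MEK 1-activated ERK2 phosphorylates MBP or Myc peptide with 33P-ATP, filter capture and scintillation counting, inhibitor preincubated with ERK2 30 min at 0 °C, inhibition relative to uninhibited control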
Experimental: To evaluate inhibitors of the MAP (mitogen activated protein) kinase a two component coupled standard pharmacological test procedure, which measures phosphorylation of a serine/threonine residue in an appropriate sequence in the substrate in the presence and absence of a putative inhibitor, was used. Recombinant human MEK 1 (MAPKK) was first used to activate recombinant human ERK2 (MAPK) and the activated MAPK (ERK) was incubated with substrate (MBP peptide or MYC peptide) in the presence of ATP, Mg^+2 and radiolabeled ^33P ATP. The phosphorylated peptide was captured on a P 81 phosphocellulose filter (paper filter or embedded in microtiter plate) washed and counted by scintillation methods.
The peptide substrates used in the assay are MBP, peptide substrate ([sequence]), or synthetic Myc substrate, ([sequence]•5 TFA. The recombinant enzymes used were prepared as GST fusion proteins of human ERK 2 and human MEK 1. Inhibitor samples were prepared as 10X stocks in 10% DMSO and an appropriate aliquot was used to deliver either 10 ug/ml for a single point screening dose or 100, 10, 1, and 0.1 uM final concentration for a dose response curve. Final DMSO concentrations were less than or equal to 1%.
The reaction was run as follows in 50 mM Tris kinase buffer, pH 7.4 in a reaction volume of 50 ul. The appropriate volume of kinase buffer and inhibitor sample was added to the tube. Appropriate dilution of enzyme was delivered to give 2-5 ug recombinant MAPK (Erk ) per tube. The inhibitor was incubated with MAPK (Erk) for 30 min at 0 deg. […] Recombinant Mek (MAPKK) ( 0.5-2.5 ug) or fully activated Mek (0.05-0.1 units) was added to activate the Erk and incubated for 30 min at 30° C. […] Samples were incubated at 30°C for 30 minutes and the reaction was stopped by adding 25 µl of ice cold 10 %TCA .After samples were chilled on ice for 30 min, 20 µl of sample was transferred onto P 81 phosphocellulose filter paper or appropriate MTP with embedded P 81 filter. Filter papers or MTP were washed 2 times with a large volume of 1% acetic acid, then 2 times with water. The filters or MTP were briefly air dried before addition of scintillant and samples were counted in the appropriate scintillation counter set up for reading ^33P isotope.
The raw data was captured as cpm. Sample replicates were averaged and corrected for background count. Mean cpm data was tabulated by group and % inhibition by a test compound was calculated as (corrected cpm control- corrected. cpm sample/control) X 100 = % inhibition.

[3] = target: T2, Kinase insert Domain containing Receptor (KDR: the catalytic domain of the VEGF receptor) (Homo sapiens, UniProt P35968); test: Inhibition of Kinase insert Domain containing Receptor (KDR); assay type: biochemical;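 further: KDR phosphorylating a Glu:Tyr 4:1 copolymer with P32- or P33-labelled ATP, Mg++ and vanadate, read as acid-insoluble radiolabel, compared with compound-free reaction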
T2 construct: KDR: the catalytic domain of the VEGF receptor

[4] = cell number, Sulforhodamine B, 48 hours exposure, read-out: IC50 SW620
[5] = cell number, Sulforhodamine B, 48 hours exposure, read-out: IC50 MCF7
[6] = cell number, Sulforhodamine B, 48 hours exposure, read-out: IC50 LOX
[7] = cell number, Sulforhodamine B, 48 hours exposure, read-out: IC50 A431
[8] = SK-BR-3, cell number, Sulforhodamine B, 48 hours exposure, read-out: IC50 SKBR3
[9] = pH 7.2, radioactive format, read-out: KDR IC50 (converted)
[10] = read-out: IC50 SW620, cell number, Sulforhodamine B, 48 hours exposure
[11] = read-out: IC50 MCF7, cell number, Sulforhodamine B, 48 hours exposure
[12] = read-out: IC50 LOX, cell number, Sulforhodamine B, 48 hours exposure
[13] = read-out: IC50 A431, cell number, Sulforhodamine B, 48 hours exposure
[14] = SK-BR-3, 48 h, read-out: IC50 SKBR3, cell number, Sulforhodamine B, 48 hours exposure
[15] = cell number, Sulforhodamine B, 48 hours exposure

T2 sequence (P35968 834-1162 limits assumed): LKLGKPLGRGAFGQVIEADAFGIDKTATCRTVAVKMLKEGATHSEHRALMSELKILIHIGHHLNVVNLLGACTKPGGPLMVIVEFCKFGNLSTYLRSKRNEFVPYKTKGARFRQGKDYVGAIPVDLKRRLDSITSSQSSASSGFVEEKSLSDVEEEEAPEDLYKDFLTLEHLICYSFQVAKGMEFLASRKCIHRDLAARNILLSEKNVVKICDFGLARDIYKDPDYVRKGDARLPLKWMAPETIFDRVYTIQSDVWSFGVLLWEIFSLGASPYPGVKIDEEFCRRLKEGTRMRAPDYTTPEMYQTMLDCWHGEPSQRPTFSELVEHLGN
T1 sequence (P00533 669-1210): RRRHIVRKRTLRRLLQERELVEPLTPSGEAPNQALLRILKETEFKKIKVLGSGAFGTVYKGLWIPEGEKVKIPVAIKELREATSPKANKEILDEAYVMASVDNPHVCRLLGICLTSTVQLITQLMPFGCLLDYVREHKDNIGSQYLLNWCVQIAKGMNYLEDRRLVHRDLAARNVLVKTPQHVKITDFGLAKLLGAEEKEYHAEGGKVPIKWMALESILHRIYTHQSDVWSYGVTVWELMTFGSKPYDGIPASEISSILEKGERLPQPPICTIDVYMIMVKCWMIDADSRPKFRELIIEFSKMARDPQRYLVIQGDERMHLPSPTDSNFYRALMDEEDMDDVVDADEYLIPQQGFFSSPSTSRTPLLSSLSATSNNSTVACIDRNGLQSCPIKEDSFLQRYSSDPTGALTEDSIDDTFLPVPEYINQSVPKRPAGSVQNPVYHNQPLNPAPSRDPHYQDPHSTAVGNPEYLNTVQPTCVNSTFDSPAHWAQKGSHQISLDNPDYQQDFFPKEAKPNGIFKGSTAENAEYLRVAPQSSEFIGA

SMILES | IC50 [1] | IC50 [2] | IC50 [3, 9] | IC50 (MCF7; [11]) | IC50 (LOX; [12]) | IC50 (A431; [13]) | IC50 (SKBR3; [14]) | further results
N#Cc1cnc2ccc(NCCCN3CCCC3)cc2c1Nc1cccc(Br)c1 [Example 358, 4-(3-Bromo-phenylamino)-6-(3-pyrrolidin-1-yl-propylamino)-quinoline-3-carbonitrile] | 0.1 µM | 18 µM |  |  |  |  |  | IC50 (SW620; [4]): 4.1 µg/mL (≈ 9.1 µM); IC50 (MCF7; [5]): 7.8 µg/mL (≈ 17.3 µM); IC50 (LOX; [6]): 2.5 µg/mL (≈ 5.55 µM); IC50 (A431; [7]): 0.5 µg/mL (≈ 1.11 µM); IC50 (SKBR3; [8]): 0.7 µg/mL (≈ 1.55 µM)
COc1ccc(OC)c2c(Nc3cc(O)c(Cl)cc3F)c(C#N)cnc12 [Example 243, 4-(4-Chloro-2-fluoro-5-hydroxy-phenylamino)-5,8-dimethoxy-quinoline-3-carbonitrile] |  | > 100 µM | > 80.3 µM |  |  |  |  | 
COc1cc2ncc(C#N)c(Nc3ccc(Sc4ccccc4)c(Cl)c3)c2cc1OC [Example 255, 4-[3-Chloro-4-(phenylthio)phenylamino]-6,7-dimethoxy-3-quinolinecarbonitrile] | 0.1 µM |  |  | 2.85 µg/mL (≈ 6.36 µM) | 0.69 µg/mL (≈ 1.54 µM) | 0.59 µg/mL (≈ 1.32 µM) | 0.35 µg/mL (≈ 0.781 µM) | IC50 (SW620; [10]): 0.58 µg/mL (≈ 1.29 µM)
COc1cccc2c(Nc3c(F)cc(F)cc3F)c(C#N)cnc12 [Example 280, 8-Methoxy-4-(2,4,6-trifluoro-phenylamino)-quinoline-3-carbonitrile] |  | > 100 µM | > 91.1 µM |  |  |  |  | 
COc1cc2ncc(C#N)c(Nc3cc(Br)c(O)c(Br)c3)c2cc1OC [Example 291, 4-(3,5-Dibromo-4-hydroxy-phenylamino)-6,7-dimethoxy-quinoline-3-carbonitrile] |  | > 100 µM | 20.9 µM |  |  |  |  | 
CSc1cccc(Nc2c(C#N)cnc3ccc(N)cc23)c1 [Example 363, 6-Amino-4-[(3-methylsulfanylphenyl)amino]-3-quinolinecarbonitrile] | 0.1 µM | 25 µM |  |  |  |  |  | IC50 (SW620; [4]): 0.08 µg/mL (≈ 0.261 µM); IC50 (MCF7; [5]): 0.8 µg/mL (≈ 2.61 µM); IC50 (LOX; [6]): 0.08 µg/mL (≈ 0.261 µM); IC50 (A431; [7]): 0.07 µg/mL (≈ 0.228 µM); IC50 (SKBR3; [8]): 0.06 µg/mL (≈ 0.196 µM)
COc1cc2c(Nc3ccc(C)c(O)c3)c(C#N)cnc2c(OC)c1OC [Example 233, 4-(3-Hydroxy-4-methyl-phenylamino)-6,7,8-trimethoxy-quinoline-3-carbonitrile] |  | 80 µM | > 82.1 µM |  |  |  |  | 
COCC#CC(=O)Nc1ccc2ncc(C#N)c(Nc3cccc(Br)c3)c2c1 [Example 330, N-[4-[(3-Bromophenyl)amino]-3-cyano-6-quinoliny]-4-methoxy-2-butynamide] | 0.00028 µM | > 100 µM |  |  |  |  |  | IC50 (SW620; [4]): 0.02 µg/mL (≈ 0.0459 µM); IC50 (MCF7; [5]): 0.36 µg/mL (≈ 0.827 µM); IC50 (LOX; [6]): 0.02 µg/mL (≈ 0.0459 µM); IC50 (A431; [7]): 0.05 µg/mL (≈ 0.115 µM); IC50 (SKBR3; [8]): 0.23 µg/mL (≈ 0.528 µM)
COc1ccc(OC)c2c(Nc3ccc(C)c(O)c3)c(C#N)cnc12 [Example 239, 4-(3-Hydroxy-4-methyl-phenylamino)-5,8-dimethoxy-quinoline-3-carbonitrile] |  | > 100 µM | > 89.5 µM |  |  |  |  | 
C=CC(=O)Nc1ccc2ncc(C#N)c(Nc3cccc(OC)c3)c2c1 [Example 138, N-{3-Cyano-4-[(3-methoxyphenyl)amino]-6-quinolinyl}-2-propenamide] | 0.0035 µM |  |  | 3.51 µg/mL (≈ 10.2 µM) | 1.12 µg/mL (≈ 3.25 µM) | 0.44 µg/mL (≈ 1.28 µM) | < 0.01 µg/mL | IC50 (SW620; [10]): 3.52 µg/mL (≈ 10.2 µM)
COc1cc2ncc(C#N)c(Nc3ccc(Cl)cc3F)c2cc1OCCCN1CCOCC1 [Example 127] |  | 6 µM |  |  |  |  |  | IC50 [3]: 21.2 µM
Cc1cc([N+](=O)[O-])cc2c(Nc3cccc(Br)c3)c(C#N)cnc12 [Example 105, 4-[(3-Bromophenyl)amino]-8-methyl-6-nitro-3-quinolinecarbonitrile] | 0.001 µM | > 100 µM |  | 2.09 µg/mL (≈ 5.45 µM) | 0.72 µg/mL (≈ 1.88 µM) | 0.13 µg/mL (≈ 0.339 µM) | 1.84 µg/mL (≈ 4.8 µM) | IC50 (SW620; [10]): 0.06 µg/mL (≈ 0.157 µM)
COc1cc2c(Nc3cccc(N(C)C)c3)c(C#N)cnc2c(OC)c1OC [Example 232, 4-(3-Dimethylamino-phenylamino)-6.7.8-trimethoxy-quinoline-3-carbonitrile] |  |  | > 79.3 µM |  |  |  |  | 
COc1cc2ncc(C#N)c(Nc3ccc(C)c(O)c3)c2cc1OCCCN1CCOCC1 [Example 128] |  |  |  |  |  |  |  | IC50 [3]: 17.8 µM
N#Cc1cnc2ccc(NC(=O)C#CCO)cc2c1Nc1cccc(Br)c1 [Example 332] | 0.0009 µM | 25 µM and < 50 µM |  |  |  |  |  | IC50 (SW620; [4]): 0.44 µg/mL (≈ 1.04 µM); IC50 (MCF7; [5]): 54.9 µg/mL (≈ 130 µM); IC50 (LOX; [6]): 0.51 µg/mL (≈ 1.21 µM); IC50 (A431; [7]): 0.6 µg/mL (≈ 1.42 µM); IC50 (SKBR3; [8]): 0.08 µg/mL (≈ 0.19 µM)
CCOc1cc2c(Nc3ccc(C)c(O)c3)c(C#N)cnc2cc1OC [Example 97, 6-Ethoxy-4-(3-hydroxy-4-methylphenylamino)-7-methoxyquinoline-3-carbonitrile] |  |  | 0.286 µM |  |  |  |  | 
C=C(CC(=O)Nc1ccc2ncc(C#N)c(Nc3cccc(Br)c3)c2c1)C(=O)O [Example 186, 4-[[4-[(3-Bromophenyl)amino]-3-cyano-6-quinolinyl]-amino]-2-methylene-4-oxo-butanoic acid] | 0.1 µM |  |  | 42.5 µg/mL (≈ 94.2 µM) | 46.4 µg/mL (≈ 103 µM) | 37.6 µg/mL (≈ 83.3 µM) | 21.5 µg/mL (≈ 47.6 µM) | IC50 (SW620; [10]): 62.6 µg/mL (≈ 139 µM)
C#Cc1cccc(Nc2c(C#N)cnc3ccc(NC(=O)C=C)cc23)c1 [Example 165, N-{3-Cyano-4-[(3-ethynyphenyl)amino]-6-quinolinyl)-2-propenamide] | 0.0005 µM | > 100 µM |  | 5.8 µg/mL (≈ 17.1 µM) | 0.8 µg/mL (≈ 2.36 µM) | 0.2 µg/mL (≈ 0.591 µM) | 0.1 µg/mL (≈ 0.296 µM) | IC50 (SW620; [10]): 3 µg/mL (≈ 8.87 µM)
N#Cc1cnc2ccc(NC(=O)C#CCN3CCOCC3)cc2c1Nc1cccc(Br)c1 [Example 328, N-[4-[(3-Bromophenyl)amino]-3-cyano-6-quinolinyl]-4-morpholino-2-butynamide] | 0.0045 µM | > 100 µM |  |  |  |  |  | IC50 (SW620; [4]): 0.15 µg/mL (≈ 0.306 µM); IC50 (MCF7; [5]): 0.78 µg/mL (≈ 1.59 µM); IC50 (LOX; [6]): 0.33 µg/mL (≈ 0.673 µM); IC50 (A431; [7]): 0.19 µg/mL (≈ 0.387 µM); IC50 (SKBR3; [8]): 0.02 µg/mL (≈ 0.0408 µM)
C=CC(=O)Nc1ccc2ncc(C#N)c(Nc3ccc(Br)cc3)c2c1 [Example 151, N-{4-[(4-Bromophenyl)amino]-3-cyano-6-quinolinyl} -2-propenamide] | 0.5 µM |  |  | 0.61 µg/mL (≈ 1.55 µM) | 0.08 µg/mL (≈ 0.203 µM) | 0.09 µg/mL (≈ 0.229 µM) | 0.07 µg/mL (≈ 0.178 µM) | IC50 (SW620; [10]): < 0.01 µg/mL
C#Cc1cccc(Nc2c(C#N)cnc3ccc(NC(=O)C#CC)cc23)c1 [Example 164, N-{3-Cyano-4-[(3-ethynylphenyl)amino]-6-quinolinyl}-2-butynamide] | 0.09 µM | > 100 µM |  | 57 µg/mL (≈ 163 µM) | 0.9 µg/mL (≈ 2.57 µM) | 0.6 µg/mL (≈ 1.71 µM) | 0.7 µg/mL (≈ 2 µM) | IC50 A431 (A431; [15]): 0.322 µg/mL (≈ 0.919 µM); IC50 SKBR3 (SKBR3; [15]): 0.684 µg/mL (≈ 1.95 µM)
CN(C)CC#CC(=O)Nc1ccc2ncc(C#N)c(Nc3cccc(Br)c3)c2c1 [Example 329, N-[4-[(3-Bromophenyl)amino]-3-cyano-6-quinolinyl]-4-dimethylamino-2-butynamide] | 0.00045 µM | > 100 µM |  |  |  |  |  | IC50 (SW620; [4]): 0.03 µg/mL (≈ 0.0669 µM); IC50 (MCF7; [5]): 0.75 µg/mL (≈ 1.67 µM); IC50 (LOX; [6]): 0.58 µg/mL (≈ 1.29 µM); IC50 (A431; [7]): 0.22 µg/mL (≈ 0.491 µM); IC50 (SKBR3; [8]): 0.21 µg/mL (≈ 0.468 µM)
COc1cc2c(Nc3cc(O)c(Cl)cc3F)c(C#N)cnc2cc1OCCN1CCOCC1 [Example 87, 4-(4-Chloro-2-fluoro-5-hydroxy-phenylamino)-6-methoxy-7-(2-morpholin-4-yl-ethoxy)-quinoline-3-carbonitrile] |  |  | 6.34 µM |  |  |  |  | 
N#Cc1cnc2ccc([N+](=O)[O-])cc2c1Nc1ccc(F)c(F)c1 [Example 156, 4-[(3,4-Difluorophenyl)amino]-6-nitro-3-quinolinecarbonitrile] | 0.5 µM | > 100 µM |  | 7.57 µg/mL (≈ 23.2 µM) | 67 µg/mL (≈ 205 µM) | 3.77 µg/mL (≈ 11.6 µM) | 7.43 µg/mL (≈ 22.8 µM) | IC50 (SW620; [10]): 7.91 µg/mL (≈ 24.2 µM)
